Experimental data published in PubChem BioAssay AID1259407 (Chemical Carcinogenesis Research Information System (CCRIS), 2018).
The source made the active and inactive calls. The rule behind the calls is not given here.

Tested on: CCRIS mutagenicity, Ames/micronucleus/aberration tests
Assay: CCRIS mutagenicity studies
[1] = Test System: AMES SALMONELLA TYPHIMURIUM, Strain/Indicator: TA98, Metabolic Activation: RAT, LIVER, S-9, AROCLOR 1254, Method: PREINCUBATION
[2] = Test System: AMES SALMONELLA TYPHIMURIUM, Strain/Indicator: TA100, Metabolic Activation: RAT, LIVER, S-9, AROCLOR 1254, Method: PREINCUBATION

## ClCC(Cl)CCl
End Point: IN VITRO CHROMOSOMAL ABERRATIONS, Test System: CHL CELLS, Metabolic Activation: NONE
  mutagenic call: inactive; negative
End Point: IN VITRO CHROMOSOMAL ABERRATIONS, Test System: CHL CELLS, Metabolic Activation: RAT, LIVER, S-9, SODIUM PHENOBARBITAL AND 5,6-BENZOFLAVONE
  mutagenic call: active; positive (structural changes)
Test System: AMES SALMONELLA TYPHIMURIUM, Strain/Indicator: TA97, Metabolic Activation: HAMSTER, LIVER, S-9, AROCLOR 1254 (10%), Method: PREINCUBATION
  mutagenic call: active; positive
Test System: AMES SALMONELLA TYPHIMURIUM, Strain/Indicator: TA97, Metabolic Activation: NONE, Method: PREINCUBATION
  mutagenic call: inactive; negative
Test System: AMES SALMONELLA TYPHIMURIUM, Strain/Indicator: TA97, Metabolic Activation: RAT, LIVER, S-9, AROCLOR 1254 (10%), Method: PREINCUBATION
  mutagenic call: active; positive
Test System: AMES SALMONELLA TYPHIMURIUM, Strain/Indicator: TA98, Metabolic Activation: HAMSTER, LIVER, S-9, AROCLOR 1254 (10%), Method: PREINCUBATION
  mutagenic call: active; positive
Test System: AMES SALMONELLA TYPHIMURIUM, Strain/Indicator: TA98, Metabolic Activation: HAMSTER, LIVER, S-9, AROCLOR 1254, Method: PREINCUBATION
  mutagenic call: inactive; negative
Test System: AMES SALMONELLA TYPHIMURIUM, Strain/Indicator: TA98, Metabolic Activation: NONE, Method: PREINCUBATION
  mutagenic call: inactive; negative
[1]
  mutagenic call: inactive; negative
Test System: AMES SALMONELLA TYPHIMURIUM, Strain/Indicator: TA100, Metabolic Activation: HAMSTER, LIVER, S-9, AROCLOR 1254 (10%), Method: PREINCUBATION
  mutagenic call: active; positive
Test System: AMES SALMONELLA TYPHIMURIUM, Strain/Indicator: TA100, Metabolic Activation: HAMSTER, LIVER, S-9, AROCLOR 1254, Method: PREINCUBATION
  mutagenic call: active; positive
Test System: AMES SALMONELLA TYPHIMURIUM, Strain/Indicator: TA100, Metabolic Activation: NONE, Method: PREINCUBATION
  mutagenic call: inactive; negative
Test System: AMES SALMONELLA TYPHIMURIUM, Strain/Indicator: TA100, Metabolic Activation: RAT, LIVER, MICROSOMES, PHENOBARBITAL, NADPH COFACTORS, Method: STANDARD PLATE
  mutagenic call: active; positive
Test System: AMES SALMONELLA TYPHIMURIUM, Strain/Indicator: TA100, Metabolic Activation: RAT, LIVER, MICROSOMES, PHENOBARBITAL, Method: STANDARD PLATE
  mutagenic call: inactive; negative
Test System: AMES SALMONELLA TYPHIMURIUM, Strain/Indicator: TA100, Metabolic Activation: RAT, LIVER, S-9, AROCLOR 1254 (10%), Method: PREINCUBATION
  mutagenic call: active; positive
[2]
  mutagenic call: active; positive
Test System: AMES SALMONELLA TYPHIMURIUM, Strain/Indicator: TA1535, Metabolic Activation: HAMSTER, LIVER, S-9, AROCLOR 1254 (10%), Method: PREINCUBATION
  mutagenic call: active; positive
Test System: AMES SALMONELLA TYPHIMURIUM, Strain/Indicator: TA1535, Metabolic Activation: HAMSTER, LIVER, S-9, AROCLOR 1254, Method: PREINCUBATION
  mutagenic call: active; positive
Test System: AMES SALMONELLA TYPHIMURIUM, Strain/Indicator: TA1535, Metabolic Activation: NONE, Method: PREINCUBATION
  mutagenic call: inactive; negative
Test System: AMES SALMONELLA TYPHIMURIUM, Strain/Indicator: TA1535, Metabolic Activation: RAT, LIVER, S-9, AROCLOR 1254 (10%), Method: PREINCUBATION
  mutagenic call: active; positive
Test System: AMES SALMONELLA TYPHIMURIUM, Strain/Indicator: TA1535, Metabolic Activation: RAT, LIVER, S-9, AROCLOR 1254, Method: PREINCUBATION
  mutagenic call: active; positive
Test System: AMES SALMONELLA TYPHIMURIUM, Strain/Indicator: TA1537, Metabolic Activation: HAMSTER, LIVER, S-9, AROCLOR 1254 (10%), Method: PREINCUBATION
  mutagenic call: inactive; negative
Test System: AMES SALMONELLA TYPHIMURIUM, Strain/Indicator: TA1537, Metabolic Activation: NONE, Method: PREINCUBATION
  mutagenic call: inactive; negative
Test System: AMES SALMONELLA TYPHIMURIUM, Strain/Indicator: TA1537, Metabolic Activation: RAT, LIVER, S-9, AROCLOR 1254 (10%), Method: PREINCUBATION
  mutagenic call: inactive; negative
Test System: AMES SALMONELLA TYPHIMURIUM, Strain/Indicator: TA1537, Metabolic Activation: RAT, LIVER, S-9, AROCLOR 1254, Method: PREINCUBATION
  mutagenic call: inactive; negative
Test System: MOUSE LYMPHOMA, Strain/Indicator: L5178Y (TK+/TK-), Metabolic Activation: NONE, Method: SUSPENSION/PLATE
  mutagenic call: inactive; negative
Test System: MOUSE LYMPHOMA, Strain/Indicator: L5178Y (TK+/TK-), Metabolic Activation: RAT, LIVER, S-9, AROCLOR 1254, Method: SUSPENSION/PLATE
  mutagenic call: active; positive

## COc1ccc2c(c1)nc(N)n2C
[1]
  mutagenic call: active; positive
[2]
  mutagenic call: active; positive

## Cc1ccc(NC(=O)c2csc([N+](=O)[O-])c2)cc1
Test System: AMES SALMONELLA TYPHIMURIUM, Strain/Indicator: TA98, Metabolic Activation: NONE, Method: STANDARD PLATE
  mutagenic call: active; positive
Test System: AMES SALMONELLA TYPHIMURIUM, Strain/Indicator: TA100, Metabolic Activation: NONE, Method: STANDARD PLATE
  mutagenic call: active; positive

## CCN(CCCCO)N=O
Test System: AMES SALMONELLA TYPHIMURIUM, Strain/Indicator: TA1535, Metabolic Activation: RAT, LIVER, S-9, KC500 OR PHENOBARBITAL, Method: LIQUID SUSPENSION
  mutagenic call: active; positive
